The assay deals with ROCK2 protein (Homo sapiens, UniProt O75116). Briefly: Degradation inducing activity of ROCK2 protein in HUVEC cells, Western blotting (Simple Western JESS). More on the design: endogenous in cells; host or cells: HUVEC (ATCC CRL-1730). It counts as cell-based. Particulars: HUVEC, 24 h; for inhibition at 1 µM: degradation rate at 1 µM; for inhibition at 10 µM: degradation rate at 10 µM. The protocol:
In vitro degradation inducing activity of ROCK2 protein of compounds of Examples was evaluated by Western Blotting (WB).
By a test compound, 10 mM DMSO solution was prepared, which was used as a 10 µM test compound solution. Further, the solution was diluted 10-fold with DMSO to prepare a 1 mM solution, which was used as a 1 µM test compound solution.
HUVEC cells (ATCC: CRL-1730, Lot: 70041472) were cultured in F-12K medium supplemented with 10% FBS, 0.1 mg/mL heparin, […] Endothelial Cell Growth Supplement (ECGS, Corning), and 1% Penicillin/Streptomycin. The HUVEC cells seeded in a 24 well plate at 50,000 cells/well/1 mL were cultured for 24 hours, and then 1 µL of DMSO or a test compound solution was added thereto and treatment was performed for 24 hours. Cells were harvested and lysed for 20 minutes on ice using lysis buffer (Cell Signaling Technology, Cat#9803) supplemented with protease inhibitor cocktail (Sigma, Cat#P8340; Roche, Cat#P11873580001), and phosphatase inhibitor cocktail (Sigma, Cat#P5726, P0044). The lysate was sonicated (15 seconds, amplitude 30%, 1 cycle) and then centrifuged at 12500 rpm for 15 minutes at 4°C. The protein concentration was determined by BCA assay kit (Thermo Fisher Scientific, Cat#23225).
The western blotting was performed using Simple Western JESS (protein simple). A cell lysis sample (protein amount; about 1.06 µg) was loaded on a plate of Simple Western JESS, and the expression level of ROCK2 protein was detected using a 12-230 kDa Wes Separation Module (Protein simple, Cat#SM-WO04), an Anti-Rabbit Detection Module for Wes (Protein simple, Cat#DM-001), and a Total Protein Detection Module for Wes (Protein simple, Cat#DM-TP01). As the primary antibody, a material obtained by diluting ROCK2 (D1B1) Rabbit mAb (Cell Signaling Technology, Cat#9029) at 1:10 was used, and as the secondary antibody, a material obtained by diluting HRP-labeled anti-rabbit IgG antibody (Cell Signaling Technology, Cat#7074S) at 1:100 was used. The expression level of the target protein was standardized using the total protein amount loaded as a reference. The standardized expression level data of the control (DMSO) was taken as 100%, and the degradation rate (%) was calculated from the average standardized expression level data of the test compound. All analysis steps, such as data detection and analysis, are fully automated.
With respect to the ROCK2 protein degradation rate of the test compound, the protein degradation rates (%) at the evaluation concentrations were set to A ≥ 75%, 75% > B ≥ 50%, 50% > C ≥ 25%, and D < 25%, and are shown in Table 7.

Structures are written as SMILES.

Data on 13 molecules can be found in patent EP4578856A1, “HETEROCYCLIC COMPOUND” (Ubience Inc., priority 2022, dated 2024).

Chain of ROCK2 protein (O75116 whole entry): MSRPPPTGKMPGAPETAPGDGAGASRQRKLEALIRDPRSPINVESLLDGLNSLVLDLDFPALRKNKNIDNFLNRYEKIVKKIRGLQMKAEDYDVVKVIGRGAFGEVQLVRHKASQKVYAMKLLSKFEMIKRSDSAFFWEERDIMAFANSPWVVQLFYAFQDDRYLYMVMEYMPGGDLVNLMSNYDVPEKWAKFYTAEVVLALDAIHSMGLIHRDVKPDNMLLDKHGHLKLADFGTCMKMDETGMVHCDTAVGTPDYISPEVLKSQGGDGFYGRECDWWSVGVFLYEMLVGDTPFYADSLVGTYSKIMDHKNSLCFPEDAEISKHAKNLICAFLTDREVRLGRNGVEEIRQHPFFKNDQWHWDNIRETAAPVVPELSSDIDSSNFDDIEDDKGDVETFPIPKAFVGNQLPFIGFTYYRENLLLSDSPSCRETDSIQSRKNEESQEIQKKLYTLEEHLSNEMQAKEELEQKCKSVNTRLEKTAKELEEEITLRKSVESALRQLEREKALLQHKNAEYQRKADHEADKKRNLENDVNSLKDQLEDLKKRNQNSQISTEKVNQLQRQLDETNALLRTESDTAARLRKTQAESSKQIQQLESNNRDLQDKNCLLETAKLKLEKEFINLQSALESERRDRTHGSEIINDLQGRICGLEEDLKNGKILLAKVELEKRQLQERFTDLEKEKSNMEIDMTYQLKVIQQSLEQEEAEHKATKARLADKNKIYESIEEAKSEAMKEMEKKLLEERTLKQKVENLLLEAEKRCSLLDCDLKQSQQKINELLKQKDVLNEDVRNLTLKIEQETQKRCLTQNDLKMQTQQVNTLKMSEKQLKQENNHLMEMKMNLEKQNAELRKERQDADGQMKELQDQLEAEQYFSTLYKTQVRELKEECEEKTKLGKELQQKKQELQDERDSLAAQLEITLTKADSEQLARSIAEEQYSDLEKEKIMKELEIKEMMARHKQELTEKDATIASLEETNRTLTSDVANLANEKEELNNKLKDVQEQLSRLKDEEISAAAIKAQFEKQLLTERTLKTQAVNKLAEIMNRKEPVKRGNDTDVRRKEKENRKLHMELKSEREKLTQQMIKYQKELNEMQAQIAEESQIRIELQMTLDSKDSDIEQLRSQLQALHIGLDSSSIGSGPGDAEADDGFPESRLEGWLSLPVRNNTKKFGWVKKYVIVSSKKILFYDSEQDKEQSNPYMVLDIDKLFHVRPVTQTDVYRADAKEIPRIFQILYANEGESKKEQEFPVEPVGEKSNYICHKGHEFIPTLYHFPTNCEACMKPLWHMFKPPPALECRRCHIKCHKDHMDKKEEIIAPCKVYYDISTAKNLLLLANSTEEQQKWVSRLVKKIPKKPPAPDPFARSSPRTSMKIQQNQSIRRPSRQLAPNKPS

The term inhibition denotes the percentage by which the read-out fell short of the control. A lower inhibition goes with a response near the control. For the molecule `COC[C@H]1CN[C@H](C)CN1CC(=O)N1CC(C)(C)c2ncc(Cc3cccc(OCCOCCOCCNC[C@@H](C(=O)Nc4ccc5cnccc5c4)c4ccccc4)c3)cc21` [Example 58, (S)-N-(Isoquinolin-6-yl)-3-((2-(2-(2-(3-((1-(2-((2R,5R)-2-(methoxymethyl)-5-methylpiperazin-1-yl)acetyl)-3,3-dimethyl-2,3-dihydro-1H-pyrrolo[3,2-b]pyridin-6-yl)methyl)phenoxy)ethoxy)ethoxy)ethyl)amino)-2-phenylpropanamide], the inhibition at 1 µM fell in the range of 50 to 75% and the inhibition at 10 µM was not below 75%.

The molecule `COC[C@H]1CN[C@H](C)CN1CC(=O)N1CC(C)(C)c2nc(CN(C)CCOCCOCCOCCOCCN[C@H](C)c3ccc(C(=O)Nc4ccncc4)cc3)c(Cc3ccc(F)cc3)cc21` [Example 25, 4-((R)-1-(6-(4-Fluorobenzyl)-1-(2-((2R,5R)-2-(methoxymethyl)-5-methylpiperazin-1-yl)acetyl)-3,3-dimethyl-2,3-dihydro-1H-pyrrolo[3,2-b]pyridin-5-yl)-2-methyl-5,8,11,14-tetraoxa-2,17-diazanonadecan-18-yl)-N-(pyridin-4-yl)benzamide] gave an inhibition at 1 µM not below 75% and an inhibition at 10 µM not below 75%.

With `COC[C@H]1CN[C@H](C)CN1CC(=O)N1CC(C)(C)c2nc(CN(C)CCOCCOCCOCCOCCOCCOCCOCCN[C@H](C)c3ccc(C(=O)Nc4ccncc4)cc3)c(Cc3ccc(F)cc3)cc21` [Example 28, 4-((R)-1-(6-(4-Fluorobenzyl)-1-(2-((2R,5R)-2-(methoxymethyl)-5-methylpiperazin-1-yl)acetyl)-3,3-dimethyl-2,3-dihydro-1H-pyrrolo[3,2-b]pyridin-5-yl)-2-methyl-5,8,11,14,17,20,23-heptaoxa-2,26-diazaoctacosan-27-yl)-N-(pyridin-4-yl)benzamide], the inhibition at 1 µM lay within 50 to 75% and the inhibition at 10 µM is less than 25%.

On to `COC[C@H]1CN[C@H](C)CN1CC(=O)N1CC(C)(C)c2ncc(Cc3cccc(OCCOCCOCCOCCOCCOCCOCCOCCN[C@H](C)c4ccc(C(=O)Nc5ccncc5)cc4)c3)cc21` [Example 49, 4-((R)-26-(3-((1-(2-((2R,5R)-2-(Methoxymethyl)-5-methylpiperazin-1-yl)acetyl)-3,3-dimethyl-2,3-dihydro-1H-pyrrolo[3,2-b]pyridin-6-yl)methyl)phenoxy)-6,9,12,15,18,21,24-heptaoxa-3-azahexacosan-2-yl)-N-(pyridin-4-yl)benzamide], for which the inhibition at 1 µM was not below 75% and the inhibition at 10 µM is 50 to 75%.

As to `COC[C@H]1CN[C@H](C)CN1CC(=O)N1CC(C)(C)c2ncc(Cc3cccc(OCCOCCOCCOCCOCCOCCN[C@H](Cc4cccc(F)c4)C(=O)Nc4ccc(-c5ccncc5)cc4)c3)cc21` [Example 54, (R)-2-(3-Fluorobenzyl)-20-(3-((1-(2-((2R,5R)-2-(methoxymethyl)-5-methylpiperazin-1-yl)acetyl)-3,3-dimethyl-2,3-dihydro-1H-pyrrolo[3,2-b]pyridin-6-yl)methyl)phenoxy)-N-(4-(pyridin-4-yl)phenyl)-6,9,12,15,18-pentaoxa-3-azaicosanamide], the inhibition at 1 µM is not below 75% and the inhibition at 10 µM lay within 25 to 50%.

Take `COC[C@H]1CN[C@H](C)CN1CC(=O)N1CC(C)(C)c2ncc(Cc3cccc(OCCOCCOCCOCCOCCOCCNC[C@@H](C(=O)Nc4ccc5cnccc5c4)c4ccccc4)c3)cc21` [Example 61, (S)-N-(Isoquinolin-6-yl)-1-(3-((1-(2-((2R,5R)-2-(methoxymethyl)-5-methylpiperazin-1-yl)acetyl)-3,3-dimethyl-2,3-dihydro-1H-pyrrolo[3,2-b]pyridin-6-yl)methyl)phenoxy)-20-phenyl-3,6,9,12,15-pentaoxa-18-azahenicosan-21-amide]: the inhibition at 1 µM was 50 to 75% and the inhibition at 10 µM is not below 75%.

Consider `COC[C@H]1CN[C@H](C)CN1CC(=O)N1CC(C)(C)c2ncc(Cc3ccccc3OCCOCCOCCNC[C@@H](C(=O)Nc3ccc4cnccc4c3)c3ccccc3)cc21` [Example 79, (S)-N-(Isoquinolin-6-yl)-3-((2-(2-(2-(2-((1-(2-((2R,5R)-2-(methoxymethyl)-5-methylpiperazin-1-yl)acetyl)-3,3-dimethyl-2,3-dihydro-1H-pyrrolo[3,2-b]pyridin-6-yl)methyl)phenoxy)ethoxy)ethoxy)ethyl)amino)-2-phenylpropanamide], for which the inhibition at 1 µM was not below 75% and the inhibition at 10 µM was not below 75%.

As to `COC[C@H]1CN[C@H](C)CN1CC(=O)N1CC(C)(C)c2ncc(Cc3ccccc3OCCOCCNC[C@@H](C(=O)Nc3ccc4cnccc4c3)c3ccccc3)cc21` [Example 78, (S)-N-(Isoquinolin-6-yl)-3-((2-(2-(2-((1-(2-((2R,5R)-2-(methoxymethyl)-5-methylpiperazin-1-yl)acetyl)-3,3-dimethyl-2,3-dihydro-1H-pyrrolo[3,2-b]pyridin-6-yl)methyl)phenoxy)ethoxy)ethyl)amino)-2-phenylpropanamide], the inhibition at 1 µM was less than 25% and the inhibition at 10 µM is not below 75%.

As for `COC[C@H]1CN[C@H](C)CN1CC(=O)N1CC(C)(C)c2ncc(Cc3cccc(OCCOCCNC[C@@H](C(=O)Nc4ccc5cnccc5c4)c4ccccc4)c3)cc21` [Example 57, (S)-N-(Isoquinolin-6-yl)-3-((2-(2-(3-((1-(2-((2R,5R)-2-(methoxymethyl)-5-methylpiperazin-1-yl)acetyl)-3,3-dimethyl-2,3-dihydro-1H-pyrrolo[3,2-b]pyridin-6-yl)methyl)phenoxy)ethoxy)ethyl)amino)-2-phenylpropanamide], the inhibition at 1 µM lay in the range of 25 to 50% and the inhibition at 10 µM is not below 75%.

As for `COC[C@H]1CN[C@H](C)CN1CC(=O)N1CC(C)(C)c2ncc(Cc3ccccc3OCCOCCN[C@H](Cc3cccc(F)c3)C(=O)Nc3ccc(-c4ccncc4)cc3)cc21` [Example 71, (R)-3-(3-Fluorophenyl)-2-((2-(2-(2-((1-(2-((2R,5R)-2-(methoxymethyl)-5-methylpiperazin-1-yl)acetyl)-3,3-dimethyl-2,3-dihydro-1H-pyrrolo[3,2-b]pyridin-6-yl)methyl)phenoxy)ethoxy)ethyl)amino)-N-(4-(pyridin-4-yl)phenyl)propanamide], the inhibition at 1 µM lay in the range of 25 to 50% and the inhibition at 10 µM was less than 25%.

As for `C[C@@H]1CN(CC(=O)N2CC(C)(C)c3ncc(Cc4ccc(F)cc4)cc32)[C@@H](CN(C)CCOCCOCCOCCOCCOCCNC[C@@H](C(=O)Nc2ccc3cnccc3c2)c2ccccc2)CN1` [Example 19, (S)-1-((2R,5R)-1-(2-(6-(4-Fluorobenzyl)-3,3-dimethyl-2,3-dihydro-1H-pyrrolo[3,2-b]pyridin-1-yl)-2-oxoethyl)-5-methylpiperazin-2-yl)-N-(isoquinolin-6-yl)-2-methyl-22-phenyl-5,8,11,14,17-pentaoxa-2,20-diazatricosan-23-amide], the inhibition at 1 µM lay in the range of 25 to 50% and the inhibition at 10 µM is not below 75%.

In the case of `COC[C@H]1CN[C@H](C)CN1CC(=O)N1CC(C)(C)c2nc(CN(C)CCOCCOCCOCCOCCOCCOCCN[C@H](Cc3cccc(F)c3)C(=O)Nc3ccc(-c4ccncc4)cc3)c(Cc3ccc(F)cc3)cc21` [Example 34, (R)-24-(3-Fluorobenzyl)-1-(6-(4-fluorobenzyl)-1-(2-((2R,5R)-2-(methoxymethyl)-5-methylpiperazin-1-yl)acetyl)-3,3-dimethyl-2,3-dihydro-1H-pyrrolo[3,2-b]pyridin-5-yl)-2-methyl-N-(4-(pyridin-4-yl)phenyl)-5,8,11,14,17,20-hexaoxa-2,23-diazapentacosan-25-amide], the inhibition at 1 µM was less than 25% and the inhibition at 10 µM was not below 75%.

On to `COC[C@H]1CN[C@H](C)CN1CC(=O)N1CC(C)(C)c2nc(CN(C)CCOCCOCCOCCOCCOCCN[C@H](Cc3cccc(F)c3)C(=O)Nc3ccc(-c4ccncc4)cc3)c(Cc3ccc(F)cc3)cc21` [Example 33, (R)-21-(3-Fluorobenzyl)-1-(6-(4-fluorobenzyl)-1-(2-((2R,5R)-2-(methoxymethyl)-5-methylpiperazin-1-yl)acetyl)-3,3-dimethyl-2,3-dihydro-1H-pyrrolo[3,2-b]pyridin-5-yl)-2-methyl-N-(4-(pyridin-4-yl)phenyl)-5,8,11,14,17-pentaoxa-2,20-diazadocosan-22-amide], for which the inhibition at 1 µM was less than 25% and the inhibition at 10 µM is not below 75%.
